Source: PMC7179302, “Lead Optimization of Dehydroemetine for Repositioned Use in Malaria” (Antimicrobial Agents and Chemotherapy, 2020)
Counter-ions that a name gives are not always drawn.

Assays:
[1] = test system: P. falciparum strain 3D7A; assay: 3H-hypoxanthine incorporation assay, strain 3D7A; type: cell-based; conditions: Plasmodium falciparum, read-out: IC50 (μM) 3D7A
Description: (§1) The cross-resistance assay used relies on the parasites’ incorporation of labeled 3H-hypoxanthine, which is proportional to P. falciparum growth. In vitro cross-resistance of the compounds is measured as the ratio between the IC50 for the tested P. falciparum strain and the IC50 for strain 3D7A. Every replicate from a multidrug-resistant (MDR) strain involved a simultaneous determination using a 3D7A replicate to avoid any artifact linked to experimental conditions.
(§2) The three strains used for the cross-resistance assay were 3D7A, Dd2, and W2, based on their resistance profiles; the assay was carried out by GSK, Tres Cantos. Strain 3D7A is chloroquine sensitive, strain Dd2 is resistant to chloroquine, mefloquine, and pyrimethamine ([57]), and strain W2 is resistant to chloroquine, quinine, pyrimethamine, cycloguanil, and sulfadoxine (from the Malaria Research and Reference Reagent Resource Center [MR4]) ([58]). A culture of red blood cells (RBCs) parasitized by the corresponding strain (0.5% parasitemia, 2% hematocrit) in RPMI 1640, […], and 5 μM hypoxanthine was exposed to 9 dilutions (3-fold serial dilutions) of the compound starting at 5 μM. One hundred microliters of culture volume was plated in 96-well flat-bottom microtiter plates with 0.5 μl drug (200× stock in DMSO). Plates were incubated for 24 h at 37°C, 5% CO2, 5% O2, 90% N2. Next, 3H-hypoxanthine was added and plates were incubated for another 24-h period. After that, parasites were harvested on a glass fiber filter using a TomTec cell harvester 96. Filters were dried, and melt-on scintillator sheets were used to determine the incorporation of 3H-hypoxanthine. Radioactivity was measured using a MicroBeta counter. […] IC50 values were determined using the Grafit 7 program ([41]).

[2] = test system: mitochondrial membrane potential of P. falciparum strain K1 trophozoites; assay: Rhodamine 123 staining for mitochondrial membrane potential, flow cytometry; type: cell-based, Plasmodium falciparum; conditions: deviation from infected blood without drugs
Description: Changes in mitochondrial membrane potential were measured using rhodamine 123 (excitation wavelength, 511 nm; emission wavelength, 534 nm), a membrane-permeating cationic fluorescent dye ([49]), which accumulates by electrostatic attraction in the mitochondria because of its negative transmembrane potential. A change in the dye’s concentration in the mitochondria is caused by a depolarization event and can be visualized as a shift in the fluorescence intensity of rhodamine 123 ([50]). Draq5 (excitation wavelength, 647 nm; emission wavelength, >665 nm) is a far-red fluorescent DNA dye which is cell permeating and was used to distinguish the parasites in flow cytometry in the allophycocyanin (APC)-Cy7-A channel. SYBR green was not preferred for this experiment as it emits in the same channel as rhodamine 123 and would result in the overlap of emission signals. Fluorescence microscopy was used to visualize the localization of rhodamine 123 within the cytoplasm of the parasites (Fig. 9).
A decrease in fluorescence intensity measured in the fluorescein isothiocyanate (FITC)-A channel indicates a loss of mitochondrial membrane potential. Atovaquone, a known mitochondrial inhibitor, was used as a control.
Compounds were then washed away by centrifuging the cultures, and a pellet was prepared for each drug concentration. Pellets were then incubated with 1 ml of 200 nM rhodamine 123 for 1 h, followed by a further incubation with 100 μl of 5 μM Draq5 for 20 min. After a wash with PBS, the experiment was read with a flow cytometer on the FITC channel. Loss of mitochondrial membrane potential was indicated by a decrease in fluorescence intensity.

P. falciparum strain Dd2 = assay: microbe, parasite or virus in culture; type: cell-based; conditions: Plasmodium falciparum, DD2, read-out: IC50 (μM) Dd2
Description: as §1, §2

P. falciparum strain W2 = assay: microbe, parasite or virus in culture; type: cell-based; conditions: Plasmodium falciparum, W2, read-out: IC50 (μM) W2
Description: as §1, §2

CCC1=C(C[C@H]2NCCc3cc(OC)c(OC)cc32)C[C@H]2c3cc(OC)c(OC)cc3CCN2C1 [(−)-R,S-dehydroemetine, (S)-2-((R)-6,7-dimethoxy-1,2,3,4-tetrahydro-isoquinolin-1-ylmethyl)-3-ethyl-9,10-dimethoxy-1,6,7,11b-tetrahydro-4H-pyrido[2,1-a]isoquinoline * dihydrobromide]
IC50 [1]: 0.146 µM | Change in fluorescence intensity (FITC-A mean) of rhodamine 123 ([2]; at 10× IC50, 2 h): 32.98% | Change in fluorescence intensity (FITC-A mean) of rhodamine 123 ([2]; at IC50, 2 h): 26.76% | IC50 (P. falciparum strain Dd2): 0.177 µM | IC50 (P. falciparum strain W2): 0.168 µM

CCC1=C(C[C@@H]2NCCc3cc(OC)c(OC)cc32)C[C@H]2c3cc(OC)c(OC)cc3CCN2C1 [(−)-S,S-dehydroisoemetine, (S)-2-((S)-6,7-dimethoxy-1,2,3,4-tetrahydro-isoquinolin-1-ylmethyl)-3-ethyl-9,10-dimethoxy-1,6,7,11b-tetrahydro-4H-pyrido[2,1-a]isoquinoline * dihydrobromide]
IC50 [1]: 1.03 µM
